Data as given in US7906545B2, “Prodrugs of CC-1065 analogs” (priority 2002, dated 2011).

How the values were obtained:
[1] = cited from earlier work
[2] = vs doxorubicin, methotrexate and vincristine; cited from earlier work
mice = conditions: single intravenous dose of 12.5 μg/kg; cited from earlier work
[3] = phenyl carbamate prodrug of adozelesin; cited from earlier work
[4] = as compared with DC1
[5] = stability in aqueous solutions; format: physicochemical
carboxyl esterase = experiment: conversion of carbamate prodrug into parent drug by incubation in serum, plasma or with carboxyl esterase; format: in vitro ADME; conditions: plasma or with an enzyme such as carboxyl esterase
Description: Thus, piperazino carbamate and 4-piperidino-piperidino carbamate protecting groups are enzyme-cleavable by enzymes such as carboxyl esterase, which occurs in serum and plasma. Phosphate protecting groups are cleavable by phosphatase enzymes such as alkaline phosphatase.

alkaline phosphatase = conditions: incubation with alkaline phosphatase
Description: Cells to be evaluated can be exposed to the compounds for 24 hours and the surviving fractions of cells measured in direct assays by known methods.

[6] = tested on: endogenous alkaline phosphatase; conditions: presumably hydrolysis by endogenous alkaline phosphatase; cited from earlier work

Cc1c[nH]c2c1[C@@]13C[C@@H]1CN(C(=O)c1cc4cc(NC(=O)c5cc6ccccc6o5)ccc4[nH]1)C3=CC2=O [Adozelesin]
systemic toxicity in clinical evaluation [1]: high systemic toxicity | therapeutic effects in clinical evaluation [1]: poor therapeutic effects

COc1c(O)c2c(c3cc(C(=O)N4CCc5c4c(O)c(OC)c4[nH]c(C(=O)N6CC7CC78C6=CC(=O)c6[nH]cc(C)c68)cc54)[nH]c13)CCN2C(N)=O (centres unmarked) [CC-1065]
potency in vitro relative to commonly used anti-cancer drugs [2]: about 1000 fold | delayed toxicity in mice (mice): delayed hepatotoxicity leading to mortality on day 50

CCN(CC)c1ccc2cc(C(=O)Nc3ccc4[nH]c(C(=O)N5C[C@@H](CCl)c6c5cc(OC(=O)Nc5ccccc5)c5[nH]cc(C)c65)cc4c3)oc2c1 [Carzelesin]
lability of prodrug [3]: too labile for therapeutic use | systemic toxicity in clinical evaluation [1]: high systemic toxicity | therapeutic effects in clinical evaluation [1]: poor therapeutic effects

CN1CCN(C(=O)Oc2cc3c(c4ccccc24)[C@H](CCl)CN3C(=O)c2cc3cc(NC(=O)c4cc5cc(NC(=O)CCS)ccc5[nH]4)ccc3[nH]2)CC1 [DC2]
water solubility [4]: enhanced water solubility | stability in aqueous solutions [5]: extremely stable | conversion into the parent drug DC1 (carboxyl esterase): can be converted into the parent drug DC1

O=C(CCS)Nc1ccc2[nH]c(C(=O)Nc3ccc4[nH]c(C(=O)N5C[C@@H](CCl)c6c5cc(OC(=O)N5CCC(N7CCCCC7)CC5)c5ccccc65)cc4c3)cc2c1 [DC3]
water solubility [4]: enhanced water solubility | stability in aqueous solutions [5]: extremely stable | conversion into the parent drug DC1 (carboxyl esterase): can be converted into the parent drug DC1

O=C(CCS)Nc1ccc2[nH]c(C(=O)Nc3ccc4[nH]c(C(=O)N5C[C@@H](CCl)c6c5cc(OP(=O)(O)O)c5ccccc65)cc4c3)cc2c1 [DC4]
water solubility [4]: soluble | conversion into the parent drug DC1 (alkaline phosphatase): converts it into the parent drug DC1 | stability in aqueous solutions [5]: extremely stable

COc1cc([C@@H]2c3cc4c(cc3[C@@H](O[C@@H]3O[C@@H]5CO[C@@H](C)O[C@H]5[C@H](O)[C@H]3O)[C@H]3COC(=O)[C@H]23)OCO4)cc(OC)c1OP(=O)(O)O [etoposide phosphate]
conversion in vivo into active drug [6]: rapidly converted into active drug
